How the values were obtained:
Assay in all cases: relative viability (nuclei count vs DMSO), 5 days (fraction); higher = more cells survive
[1] = tested on: A-427
Summary of the method: (§1)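 Values are medians from duplicate plates. Each reflects relative viability, defined as the nuclei count of treated wells over that of vehicle wells. Lung cancer cell lines in 1536-well plates were pin-tool dosed one day after seeding with one drug alone or with a fixed anchor-drug dose plus five library-drug doses (not always all listed) in √10 steps, then fixed, stained and imaged at 4× after 5 days.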

[2] = tested on: COR-L 105
Summary of the method: as §1

[3] = tested on: ChaGo-K-1
Summary of the method: as §1

[4] = tested on: EKVX
Summary of the method: as §1

[5] = tested on: EMC-BAC-2
Summary of the method: as §1

[6] = tested on: H3255
Summary of the method: as §1

[7] = tested on: HCC-366
Summary of the method: as §1

[8] = tested on: LK-2
Summary of the method: as §1

[9] = tested on: LOU-NH91
Summary of the method: as §1

[10] = tested on: NCI-H1563
Summary of the method: as §1

[11] = tested on: NCI-H1666
Summary of the method: as §1

[12] = tested on: NCI-H1734
Summary of the method: as §1

[13] = tested on: NCI-H1755
Summary of the method: as §1

[14] = tested on: NCI-H1975
Summary of the method: as §1

[15] = tested on: NCI-H2170
Summary of the method: as §1

[16] = tested on: NCI-H23
Summary of the method: as §1

[17] = tested on: NCI-H441
Summary of the method: as §1

[18] = tested on: NCI-H520
Summary of the method: as §1

[19] = tested on: NCI-H596
Summary of the method: as §1

[20] = tested on: PC-3 [JPC-3]
Summary of the method: as §1

[21] = tested on: SK-MES-1
Summary of the method: as §1

[22] = tested on: SW 900
Summary of the method: as §1

`O=C(O)c1ccc(-c2c[nH]c3ncc(-c4ccccc4)cc23)cc1C1CCCC1` + COc1cc2c(Oc3ccc(NC(=O)C4(C(=O)Nc5ccc(F)cc5)CC4)cc3F)ccnc2cc1OCCCN1CCOCC1 [Foretinib] (partner 0.25 µM) gave a relative viability ([1]; first compound 0.04 µM) of 0.994, a relative viability ([1]; first compound 0.1265 µM) of 1.12 and a relative viability ([1]; first compound 0.4 µM) of 1.01. It also gave a relative viability ([1]; first compound 1.265 µM) of 0.786, a relative viability ([2]; first compound 0.04 µM) of 1.1 and a relative viability ([2]; first compound 0.1265 µM) of 1.43. The relative viability ([2]; first compound 0.4 µM) was 0.886, the relative viability ([2]; first compound 1.265 µM) was 1.22 and the relative viability ([3]; first compound 0.04 µM) was 0.995. It also gave a relative viability ([3]; first compound 0.1265 µM) of 0.928, a relative viability ([3]; first compound 0.4 µM) of 0.833 and a relative viability ([3]; first compound 1.265 µM) of 0.863. It also gave a relative viability ([4]; first compound 0.04 µM) of 0.826, a relative viability ([4]; first compound 0.1265 µM) of 0.79 and a relative viability ([4]; first compound 0.4 µM) of 0.868. The relative viability ([4]; first compound 1.265 µM) was 0.712, the relative viability ([5]; first compound 0.04 µM) was 0.997 and the relative viability ([5]; first compound 0.1265 µM) was 1.08. The relative viability ([5]; first compound 0.4 µM) was 0.97, the relative viability ([5]; first compound 1.265 µM) was 0.857 and the relative viability ([6]; first compound 0.04 µM) was 0.934. For the same molecule, the relative viability ([6]; first compound 0.1265 µM) was 1.08, the relative viability ([6]; first compound 0.4 µM) was 0.888 and the relative viability ([6]; first compound 1.265 µM) was 0.814. The relative viability ([7]; first compound 0.04 µM) was 0.948, the relative viability ([7]; first compound 0.1265 µM) was 0.951 and the relative viability ([7]; first compound 0.4 µM) was 0.894. For the same molecule, the relative viability ([7]; first compound 1.265 µM) was 0.881, the relative viability ([8]; first compound 0.04 µM) was 1.33 and the relative viability ([8]; first compound 0.1265 µM) was 1.14. The relative viability ([8]; first compound 0.4 µM) was 1.13, the relative viability ([8]; first compound 1.265 µM) was 0.969 and the relative viability ([9]; first compound 0.04 µM) was 0.892. The relative viability ([9]; first compound 0.1265 µM) was 1.03, the relative viability ([9]; first compound 0.4 µM) was 0.927 and the relative viability ([9]; first compound 1.265 µM) was 0.781. The relative viability ([10]; first compound 0.04 µM) was 0.924, the relative viability ([10]; first compound 0.1265 µM) was 1.03 and the relative viability ([10]; first compound 0.4 µM) was 0.853. It also gave a relative viability ([10]; first compound 1.265 µM) of 0.97, a relative viability ([11]; first compound 0.04 µM) of 0.961 and a relative viability ([11]; first compound 0.1265 µM) of 0.959. The relative viability ([11]; first compound 0.4 µM) was 0.921, the relative viability ([11]; first compound 1.265 µM) was 0.441 and the relative viability ([12]; first compound 0.04 µM) was 0.859. For the same molecule, the relative viability ([12]; first compound 0.1265 µM) was 1.04, the relative viability ([12]; first compound 0.4 µM) was 0.731 and the relative viability ([12]; first compound 1.265 µM) was 0.766. For the same molecule, the relative viability ([13]; first compound 0.04 µM) was 0.913, the relative viability ([13]; first compound 0.1265 µM) was 1.02 and the relative viability ([13]; first compound 0.4 µM) was 0.939. It also gave a relative viability ([13]; first compound 1.265 µM) of 0.861, a relative viability ([14]; first compound 0.04 µM) of 0.964 and a relative viability ([14]; first compound 0.1265 µM) of 0.941. For the same molecule, the relative viability ([14]; first compound 0.4 µM) was 0.985, the relative viability ([14]; first compound 1.265 µM) was 0.883 and the relative viability ([15]; first compound 0.04 µM) was 0.994. It also gave a relative viability ([15]; first compound 0.1265 µM) of 1, a relative viability ([15]; first compound 0.4 µM) of 0.968 and a relative viability ([15]; first compound 1.265 µM) of 0.777. It also gave a relative viability ([16]; first compound 0.04 µM) of 1.1, a relative viability ([16]; first compound 0.1265 µM) of 1 and a relative viability ([16]; first compound 0.4 µM) of 0.939. It also gave a relative viability ([16]; first compound 1.265 µM) of 0.616, a relative viability ([17]; first compound 0.04 µM) of 1.14 and a relative viability ([17]; first compound 0.1265 µM) of 0.881. For the same molecule, the relative viability ([17]; first compound 0.4 µM) was 0.897, the relative viability ([17]; first compound 1.265 µM) was 0.563 and the relative viability ([18]; first compound 0.04 µM) was 0.687. It also gave a relative viability ([18]; first compound 0.1265 µM) of 0.923, a relative viability ([18]; first compound 0.4 µM) of 0.78 and a relative viability ([18]; first compound 1.265 µM) of 0.717. It also gave a relative viability ([19]; first compound 0.04 µM) of 0.783, a relative viability ([19]; first compound 0.1265 µM) of 0.79 and a relative viability ([19]; first compound 0.4 µM) of 0.919. It also gave a relative viability ([19]; first compound 1.265 µM) of 0.999, a relative viability ([20]; first compound 0.04 µM) of 1 and a relative viability ([20]; first compound 0.1265 µM) of 1.14. For the same molecule, the relative viability ([20]; first compound 0.4 µM) was 0.978, the relative viability ([20]; first compound 1.265 µM) was 0.61 and the relative viability ([21]; first compound 0.04 µM) was 0.963. The relative viability ([21]; first compound 0.1265 µM) was 1.01, the relative viability ([21]; first compound 0.4 µM) was 0.918 and the relative viability ([21]; first compound 1.265 µM) was 0.794. The relative viability ([22]; first compound 0.04 µM) was 0.921, the relative viability ([22]; first compound 0.1265 µM) was 0.839 and the relative viability ([22]; first compound 0.4 µM) was 0.896. The relative viability ([22]; first compound 1.265 µM) was 0.824.

Reference: the supplement of paper PMC10307832
